Results published in article PMC7232442, “Biofilm Eradication by Symmetrical Selenoesters for Food-Borne Pathogens” (Microorganisms, 2020).
In brackets after ≈: the same amount, converted by molar mass. Several values for one entry are separate records, joined by “and”; a condition that tells them apart may be missing. Identical values can stand only once. Counter-ions that a name gives are not always drawn. Like-named read-outs stand apart in the source and are kept apart here.

Columns and labels:
[1] = tested on: S. Typhimurium SE02 ΔacrB; assay: Real-time ethidium bromide accumulation assay; assay type: cell-based, Salmonella enterica serovar Typhimurium; conditions: for Relative Fluorescence Index (RFI): S. Typhimurium SE02 ΔacrB, ½ MIC, minute 60
Description: (§1) The impact of compounds on EB accumulation was determined by the automated EB method using a CLARIOstar Plus plate reader (BMG Labtech, UK). Firstly, the bacterial strain was incubated until it reached an optical density (OD) of 0.6 at 600 nm. The culture was washed with phosphate buffered saline (PBS; pH 7.4) and centrifuged at 13,000× g for 3 min, the cell pellet was re-suspended in PBS. The compounds were added at ½ MIC concentration to PBS containing a non-toxic concentration of EB (1 µg/mL). Then, 50 μL of the EB solution containing the compound were transferred into 96-well black microtiter plate (Greiner Bio-One Hungary Kft, Hungary), and 50 μL of bacterial suspension (OD600 0.6) were added to the each well. Then, the plates were placed into the CLARIOstar plate reader, and the fluorescence was monitored at excitation and emission wavelengths of 530 nm and 600 nm every minute for one hour on a real-time basis. From the real-time data, the activity of the compounds, namely the relative fluorescence index (RFI) of the last time point (minute 60) of the EB accumulation assay, was calculated according to the following formula:RFI = (RFtreated − RFuntreated)/RFuntreated(2) where RFtreated is the relative fluorescence (RF) at the last time point of EB retention curve in the presence of an inhibitor, and RFuntreated is the RF at the last time point of the EB retention curve of the untreated control having the solvent control (DMSO).

[2] = tested on: S. Typhimurium SE01 Wild-Type; assay: Real-time ethidium bromide accumulation assay; assay type: cell-based, Salmonella enterica serovar Typhimurium; conditions: ½ MIC, minute 60
Description: as §1

[3] = tested on: S. Typhimurium SE03 ΔacrA; assay: Real-time ethidium bromide accumulation assay; assay type: cell-based, Salmonella enterica serovar Typhimurium; parameters: key to Relative Fluorescence Index (RFI): RFI = (RFtreated − RFuntreated)/RFuntreated at minute 60; conditions: for Relative Fluorescence Index (RFI): S. Typhimurium SE03 ΔacrA, ½ MIC, minute 60
Description: as §1

[4] = tested on: S. Typhimurium SE39 ΔtolC; assay: Real-time ethidium bromide accumulation assay; assay type: cell-based, Salmonella enterica serovar Typhimurium; parameters: key to Relative Fluorescence Index (RFI): RFI = (RFtreated − RFuntreated)/RFuntreated at minute 60; conditions: for Relative Fluorescence Index (RFI): S. Typhimurium SE39 ΔtolC, ½ MIC, minute 60; for Intracellular EB accumulation (in words): S. Typhimurium SE39, 60 min
Description: as §1

S. aureus ATCC 25923 [5] = assay: Real-time ethidium bromide accumulation assay; assay type: cell-based, Staphylococcus aureus; parameters: key to Relative Fluorescence Index (RFI): RFI = (RFtreated − RFuntreated)/RFuntreated at minute 60; conditions: for Relative Fluorescence Index (RFI): S. aureus ATCC 25923, ½ MIC, minute 60
Description: as §1

S. aureus ATCC 25923 [6] = assay: Resistance modulation assay (checkerboard) with TET or CIP; assay type: cell-based, Staphylococcus aureus; conditions: S. aureus ATCC 25923; no selenocompound
Description: (§2) The resistance modulation effect of compounds with ciprofloxacin (CIP) and tetracycline (TET) antibiotics were evaluated by the checkerboard method on S. aureus strains. Briefly, CIP or TET was diluted in a 96-well microtiter plate by two-fold serial dilution in MH broth and then the compounds were added at subinhibitory concentrations (½ MIC). In this assay, only the tested compounds with well-defined MIC values were tested. Finally, 10^−4 dilution of the overnight bacterial culture in MH was added to each well. The final volume was 200 µL in each well. The microtiter plates were incubated at 37 °C for 18 h. MIC values in the presence of the antibiotics alone and in combination with Se-compounds were determined by visual inspection.

S. aureus MRSA 272123 [7] = assay: as above; assay type: cell-based, Staphylococcus aureus; conditions: S. aureus MRSA 272123; no selenocompound
Description: as §2

[8] = tested on: Staphylococcus aureus ATCC 25923; assay: MIC determination by microdilution method; assay type: cell-based; conditions: S. aureus ATCC 25923
Description: (§3) The minimum inhibitory concentrations (MICs) of compounds were determined according to the Clinical and Laboratory Standard Institute guidelines (CLSI). MIC values of the compounds were determined by visual inspection. The solvent was also assayed to ensure there was no antibacterial effect and the concentration (1 v/v%) applied in the assays had no antibacterial activity. DMSO was used at subinhibitory concentration (1 v/v%) in the assays.

S. aureus MRSA 272123 [9] = assay: MIC determination by microdilution method; assay type: cell-based; conditions: Staphylococcus aureus
Description: as §3

[10] = tested on: S. Typhimurium SE01 Wild-Type; assay: MIC determination by microdilution method; assay type: cell-based, Salmonella enterica serovar Typhimurium; conditions: Salmonella enterica
Description: as §3

S. aureus MRSA = assay: Biofilm formation using crystal violet; assay type: cell-based, Staphylococcus aureus; conditions: for Biofilm inhibition: ½ MIC, 48 h
Description: The anti-biofilm effect of the tested compounds against S. aureus strains and wild-type S. Typhimurium SE01 was measured using crystal violet (CV; 0.1% (v/v)). This dye is used to detect the total biofilm biomass formed. Overnight cultures were diluted to OD of 0.1 at 600 nm in TSB medium. Then, the bacterial cultures were added to 96-well microtiter plates and the compounds were added at ½ MIC concentration. The final volume was 200 μL in each well. The microtiter plates were incubated at 30 °C for 48 h with gentle agitation (100 rpm). After the incubation period, TSB medium was discarded, and the plates were washed with tap water to remove unattached cells. Then 200 μL crystal violet was added to the wells and incubated for 15 min at room temperature. Then, CV was removed from the wells and the plates were washed again with tap water, and 200 μL of 70% ethanol was added to the wells. Finally, the biofilm formation was determined by measuring the OD at 600 nm using Multiscan EX ELISA plate reader (Thermo Labsystems, Cheshire, WA, USA). The anti-biofilm effect of compounds was expressed in the percentage (%) of decrease in biofilm formation.

[11] = tested on: MRC-5 human embryonal lung fibroblast cells; assay: Cytotoxicity assay (MTT); assay type: cell-based; conditions: MRC-5 cells
Description: The adherent MRC-5 human embryonal lung fibroblast cells were cultured in 96-well flat-bottomed microtiter plates, using EMEM supplemented with 10% heat-inactivated fetal bovine serum. The density of the cells was adjusted to 1 × 10^4 cells in 100 μL per well, the cells were seeded overnight at 37 °C, 5% CO2, then the medium was removed from the plates containing the cells, and the dilutions of selenocompounds previously made in a separate plate were added to the cells in 200 μL.
The culture plates were incubated at 37 °C for 24 h; at the end of the incubation period, 20 μL of MTT (thiazolyl blue tetrazolium bromide, Sigma) solution (from a stock solution of 5 mg/mL) was added to each well. After incubation at 37 °C for 4 h, 100 μL of sodium dodecyl sulfate (SDS; Sigma) solution (10% in 0.01 M HCI) was added to each well and the plates were further incubated at 37 °C overnight. Cell growth was determined by measuring the optical density (OD) at 540/630 nm with Multiscan EX ELISA reader (Thermo Labsystems, Cheshire, WA, USA). Inhibition of the cell growth was determined according to the formula below:IC50 = 100 − [(ODsample − ODmedium control)/(ODcell control − ODmedium control)] × 100(1)
Results are expressed in terms of IC50, defined as the inhibitory dose that reduces the growth of the cells exposed to the tested compounds by 50%.

S. aureus MRSA 272123 [12] = assay: Real-time ethidium bromide accumulation assay; assay type: cell-based, Staphylococcus aureus; conditions: for Relative Fluorescence Index (RFI): S. aureus MRSA 272123, ½ MIC, minute 60
Description: as §1

[13] = tested on: S. Typhimurium SE02 ΔacrB; assay: MIC determination by microdilution method; assay type: cell-based, Salmonella enterica serovar Typhimurium; conditions: Salmonella enterica
Description: as §3

[14] = tested on: S. Typhimurium SE03 ΔacrA; assay: MIC determination by microdilution method; assay type: cell-based, Salmonella enterica serovar Typhimurium; conditions: Salmonella enterica
Description: as §3

[15] = tested on: S. Typhimurium SE39 ΔtolC; assay: MIC determination by microdilution method; assay type: cell-based, Salmonella enterica serovar Typhimurium; conditions: Salmonella enterica
Description: as §3

[16] = Staphylococcus aureus, ATCC25923
[17] = S. aureus MRSA 272123, read-out: MIC
[18] = S. Typhimurium SE01 wild-type, read-out: MIC

Row | Compound | Relative Fluorescence Index (RFI) [1] | Relative Fluorescence Index (RFI) [2] | Relative Fluorescence Index (RFI) [3] | Relative Fluorescence Index (RFI) [4] | Relative Fluorescence Index (RFI) (S. aureus ATCC 25923 [5]) | MIC [8, 16] [µM] | MIC (S. aureus MRSA 272123 [9]; [17]) [µM] | MIC [10, 18] [µM] | IC50 ([11]; Homo sapiens, MRC5, 24 h) [µM] | IC50 ([11]; 24 h) [µM] | Relative Fluorescence Index (RFI) (S. aureus MRSA 272123 [12]) | MIC [13] [µM] | MIC [14] [µM] | other results
1 | N#CC(C#N)=NNc1cccc(Cl)c1 [CCCP, carbonyl cyanide m-chlorophenyl hydrazone, reference compound] | 2.46 | 3.50 | 1.81 | 1.32 | 0.52 | – | – | – | – | – | – | – | – | –
2 | O=C(O)c1cn(C2CC2)c2cc(N3CCNCC3)c(F)cc2c1=O [CIP, ciprofloxacin-hydrochloride, reference compound] | – | – | – | – | – | – | – | – | – | – | – | – | – | MIC of the antibiotic alone (S. aureus ATCC 25923 [6]): 1.06 µM; MIC of the antibiotic alone (S. aureus MRSA 272123 [7]): 33.99 µM
3 | N#CC[Se]C(=O)c1ccc(C(=O)[Se]CC#N)cc1 [Se-C1] | 0.06 | −0.08 | 0.04 | 0.13 | 0.14 | 6.25 (≈ 2.31 µg/mL) | 50 (≈ 18.5 µg/mL) | 25 (≈ 9.25 µg/mL) | > 75 | > 100 | −0.15 | – | – | Biofilm inhibition (S. aureus MRSA): 43.7% and ~50%
4 | N#CCC[Se]C(=O)c1cccc(C(=O)[Se]CC#N)c1 [Se-C2] | 0.03 | −0.10 | 0.09 | 0.25 | 0.08 | 6.25 (≈ 2.4 µg/mL) | 50 (≈ 19.2 µg/mL) | 25 (≈ 9.6 µg/mL) | > 75 | > 100 | −0.13 | – | – | –
5 | N#CC[Se]C(=O)c1cc(C(=O)[Se]CC#N)cc(C(=O)[Se]CC#N)c1 [Se-C3] | −0.02 | −0.07 | 0.08 | 0.06 | 0.18 | 1.56 (≈ 0.805 µg/mL) | – | – | > 75 | > 100 | −0.05 | 12.5 (≈ 6.45 µg/mL) | 12.5 (≈ 6.45 µg/mL) | MIC fold higher than the methylketone selenoester [8]: 4 fold; MIC (S. aureus MRSA 272123 [9]; MRSA): 12.5 µM (≈ 6.45 µg/mL); MIC ([10]; TYPHIMURIUM): 12.5 µM (≈ 6.45 µg/mL); MIC [15]: 25 µM (≈ 12.9 µg/mL)
6 | COC(=O)C[Se]C(=O)c1cccc(C(=O)[Se]CC(=O)OC)c1 [Se-E2] | 0.70 | 0.09 | 0.56 | 0.59 | 0.67 | 12.5 (≈ 5.45 µg/mL) | 100 (≈ 43.6 µg/mL) | > 100 | > 75 | > 100 | 0.33 | > 100 | > 100 | MIC [8]: 12.5 µM (≈ 5.45 µg/mL); MIC [15]: > 100 µM; Intracellular EB accumulation (in words) ([1]; S. Typhimurium SE02, 60 min): significantly increased; Intracellular EB accumulation (in words) ([3]; S. Typhimurium SE03, 60 min): significantly increased; Intracellular EB accumulation (in words) [4]: significantly increased; EPI activity (in words) (S. aureus MRSA 272123 [12]; resistant S. aureus MRSA, 60 min): effective; EPI activity (in words) (S. aureus ATCC 25923 [5]; reference (sensitive) S. aureus, 60 min): effective
7 | CC(=O)C[Se]C(=O)c1cc(C(=O)[Se]CC(C)=O)cc(C(=O)[Se]CC(C)=O)c1 [Se-K3] | 0.08 | −0.20 | 0.28 | 0.44 | 0.16 | 0.39 (≈ 0.221 µg/mL) | 0.78 (≈ 0.442 µg/mL) | 50 (≈ 28.4 µg/mL) | 0.74 | – | −0.18 | 25 (≈ 14.2 µg/mL) | 25 (≈ 14.2 µg/mL) | MIC [8]: 0.39 µM (≈ 0.221 µg/mL); Anti-biofilm effect (in words) (S. aureus MRSA): most effective anti-biofilm agent; Biofilm inhibition (S. aureus MRSA): 84.7%; Intracellular EB accumulation (in words) [4]: significant EB accumulation
